“And” between values parts separate entries of the source, which are not always exact repeats. Equal values may be shown once. Toxic doses and inconclusive results are not listed. No stated cut-off is given here; in the data, active means T/C of 150% or more; inactive means T/C below 125%.
Tested on: L1210 leukemia ip in BDF1 mice, survival T/C
Experiment: NCI In Vivo Anticancer Drug Screen. Data for tumor model L1210 Leukemia (intraperitoneal) in B6D2F1 (BDF1) mice
Conditions: endpoint: mean survival time, higher = longer survival
Method in brief: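 Survival endpoint. Drug-treated group vs vehicle group, expressed as T divided by C. Tumor passaged by transplantation.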

[1] = dose: 100.0 mg/kg/injection, schedule: Q04DX003 (ip), vehicle: saline with Tween-80
[2] = dose: 200.0 mg/kg/injection, schedule: Q04DX003 (ip), vehicle: saline with Tween-80
[3] = dose: 400.0 mg/kg/injection, schedule: Q04DX003 (ip), vehicle: saline with Tween-80
[4] = dose: 100.0 mg/kg/injection, schedule: Q04DX002 (ip), vehicle: Klucel (hydroxypropylcellulose) (HPC)
[5] = dose: 100.0 mg/kg/injection, schedule: Q01DX001 (ip), vehicle: carboxymethylcellulose (CMC)
[6] = dose: 200.0 mg/kg/injection, schedule: Q01DX001 (ip), vehicle: carboxymethylcellulose (CMC)
[7] = dose: 50.0 mg/kg/injection, schedule: Q01DX001 (ip), vehicle: saline
[8] = dose: 100.0 mg/kg/injection, schedule: Q01DX001 (ip), vehicle: saline
[9] = dose: 200.0 mg/kg/injection, schedule: Q01DX001 (ip), vehicle: saline
[10] = dose: 400.0 mg/kg/injection, schedule: Q01DX001 (ip), vehicle: saline
[11] = dose: 100.0 mg/kg/injection, schedule: Q01DX009 (ip), vehicle: saline
[12] = dose: 200.0 mg/kg/injection, schedule: Q01DX009 (ip), vehicle: saline
[13] = dose: 50.0 mg/kg/injection, schedule: Q04DX003 (ip), vehicle: Klucel (hydroxypropylcellulose) (HPC)
[14] = dose: 100.0 mg/kg/injection, schedule: Q04DX003 (ip), vehicle: Klucel (hydroxypropylcellulose) (HPC)
[15] = dose: 200.0 mg/kg/injection, schedule: Q04DX003 (ip), vehicle: Klucel (hydroxypropylcellulose) (HPC)
[16] = dose: 400.0 mg/kg/injection, schedule: Q04DX003 (ip), vehicle: Klucel (hydroxypropylcellulose) (HPC)
[17] = dose: 100.0 mg/kg/injection, schedule: Q04DX002 (ip), vehicle: saline
[18] = dose: 100.0 mg/kg/injection, schedule: Q04DX003 (ip), vehicle: saline
[19] = dose: 200.0 mg/kg/injection, schedule: Q04DX003 (ip), vehicle: saline
[20] = dose: 400.0 mg/kg/injection, schedule: Q01DX009 (ip), vehicle: saline
[21] = dose: 400.0 mg/kg/injection, schedule: Q04DX003 (ip), vehicle: saline
[22] = dose: 100.0 mg/kg/injection, schedule: Q01DX009 (ip), vehicle: Klucel (hydroxypropylcellulose) (HPC)

Measured: T/C

OCCNc1ncnc2ccccc12
inactive: [1] 98 % of control | [2] 104 % of control | [3] 104 % of control

O=C(c1ccc2cc(Cl)c(Cl)cc2c1)C(Cl)Cl
inactive: dose: 25.0 mg/kg/injection, schedule: Q04DX002 (ip), vehicle: Klucel (hydroxypropylcellulose) (HPC) 90 % of control | dose: 50.0 mg/kg/injection, schedule: Q04DX002 (ip), vehicle: Klucel (hydroxypropylcellulose) (HPC) 108 % of control | [4] 93 % of control and 98 % of control

CC(=O)OCC(=O)C12OC1CC1C3CCC4CC(=O)CCC4(C)C3CC(=O)C12C (stereo not drawn)
inactive: dose: 100.0 mg/kg/injection, schedule: Q01DX001 (ip), vehicle: other 89 % of control | dose: 200.0 mg/kg/injection, schedule: Q01DX001 (ip), vehicle: other 90 % of control | dose: 400.0 mg/kg/injection, schedule: Q01DX001 (ip), vehicle: other 97 % of control

O=C(c1ccc(Cl)cc1Cl)C(CS(=O)(=O)O)CS(=O)(=O)O
inactive: [1] 99 % of control | [2] 98 % of control | [3] 100 % of control

Cc1[nH]nc(-c2cccnc2)c1N=NN1CCC(C(N)=O)CC1
inactive: dose: 75.0 mg/kg/injection, schedule: Q01DX001 (ip), vehicle: other 103 % of control

O=C1CCC=Cc2c(O)ccc(O)c21
inactive: [5] 91 % of control | [6] 93 % of control | dose: 400.0 mg/kg/injection, schedule: Q01DX001 (ip), vehicle: carboxymethylcellulose (CMC) 96 % of control

Nc1ncnc(N)n1
inactive: dose: 50.0 mg/kg/injection, schedule: Q01DX001 (ip), vehicle: carboxymethylcellulose (CMC) 98 % of control | [5] 101 % of control | [6] 101 % of control

Cn1ncc2[nH]c(=O)n(OS(=O)(=O)c3ccccc3)c(=O)c21
inactive: [7] 100 % of control | [8] 96 % of control | [9] 96 % of control | [10] 87 % of control

CC1=NCCc2ccccc21
inactive: dose: 6.25 mg/kg/injection, schedule: Q01DX009 (ip), vehicle: saline 92 % of control | dose: 12.5 mg/kg/injection, schedule: Q01DX009 (ip), vehicle: saline 95 % of control | dose: 25.0 mg/kg/injection, schedule: Q01DX009 (ip), vehicle: saline 90 % of control

c1ccc(-c2nnc(-c3ccccn3)nc2-c2ccccc2)cc1
inactive: [1] 95 % of control | [2] 104 % of control | [3] 112 % of control

C=C[CH2][Sn]([c]1ccccc1)([c]1ccccc1)[c]1ccccc1
inactive: dose: 50.0 mg/kg/injection, schedule: Q01DX009 (ip), vehicle: saline 92 % of control and 101 % of control | [11] 96 % of control and 101 % of control | [1] 91 % of control | [12] 96 % of control and 97 % of control

Cc1ccc(NC(=O)c2ccc(C)c(NC(=O)C(F)(F)F)c2)c(C)c1
inactive: [13] 97 % of control | [14] 100 % of control | [15] 95 % of control

Cn1cnc2nc(Cl)[nH]c(=O)c21
inactive: [14] 100 % of control | [15] 97 % of control | [16] 95 % of control

CC(C)CCN
inactive: [8] 115 % of control | [11] 98 % of control and 104 % of control | [17] 102 % of control and 103 % of control | [18] 98 % of control | [9] 112 % of control | [12] 107 % of control and 112 % of control | dose: 200.0 mg/kg/injection, schedule: Q04DX002 (ip), vehicle: saline 103 % of control and 108 % of control | [19] 98 % of control | [10] 107 % of control | [20] 114 % of control and 117 % of control | dose: 400.0 mg/kg/injection, schedule: Q04DX002 (ip), vehicle: saline 101 % of control and 102 % of control | [21] 112 % of control

COc1cc([N+](=O)[O-])ccc1NC(=O)Nc1cc(Cl)c(Cl)cc1C
inactive: [22] 94 % of control | dose: 200.0 mg/kg/injection, schedule: Q01DX009 (ip), vehicle: Klucel (hydroxypropylcellulose) (HPC) 105 % of control | dose: 400.0 mg/kg/injection, schedule: Q01DX009 (ip), vehicle: Klucel (hydroxypropylcellulose) (HPC) 91 % of control

CC(=O)OCCc1cccc(C)c1
inactive: [4] 104 % of control | dose: 200.0 mg/kg/injection, schedule: Q04DX002 (ip), vehicle: Klucel (hydroxypropylcellulose) (HPC) 115 % of control | dose: 400.0 mg/kg/injection, schedule: Q04DX002 (ip), vehicle: Klucel (hydroxypropylcellulose) (HPC) 108 % of control

CN=C1N[N+]2=CCCCC2(C)S1 (stereo not drawn)
inactive: dose: 0.2 mg/kg/injection, schedule: Q03HX024 (ip), vehicle: saline 96 % of control | dose: 0.39 mg/kg/injection, schedule: Q03HX024 (ip), vehicle: saline 100 % of control | dose: 0.78 mg/kg/injection, schedule: Q03HX024 (ip), vehicle: saline 93 % of control | dose: 1.56 mg/kg/injection, schedule: Q03HX024 (ip), vehicle: saline 95 % of control | dose: 3.13 mg/kg/injection, schedule: Q03HX024 (ip), vehicle: saline 101 % of control

CS(=O)(=O)c1ccc(C(=N)N)cc1
inactive: [11] 93 % of control | [12] 97 % of control | [20] 95 % of control

CC(Cc1ccccc1)NC(C#N)c1ccccc1 (stereo not drawn)
inactive: dose: 12.5 mg/kg/injection, schedule: Q01DX009 (ip), vehicle: Klucel (hydroxypropylcellulose) (HPC) 107 % of control | dose: 25.0 mg/kg/injection, schedule: Q01DX009 (ip), vehicle: Klucel (hydroxypropylcellulose) (HPC) 88 % of control | dose: 25.0 mg/kg/injection, schedule: Q04DX003 (ip), vehicle: Klucel (hydroxypropylcellulose) (HPC) 98 % of control | dose: 25.0 mg/kg/injection, schedule: Q04DX003 (ip), vehicle: saline with Tween-80 97 % of control | dose: 50.0 mg/kg/injection, schedule: Q01DX009 (ip), vehicle: Klucel (hydroxypropylcellulose) (HPC) 91 % of control | [13] 109 % of control | dose: 50.0 mg/kg/injection, schedule: Q04DX003 (ip), vehicle: saline with Tween-80 100 % of control | [22] 96 % of control | [14] 109 % of control | [1] 92 % of control | [15] 101 % of control

CCCCCCCCCCCC[N+](CCCCCCCCCCCC)=C1SCCS1
inactive: dose: 1.56 mg/kg/injection, schedule: Q04DX003 (ip), vehicle: carboxymethylcellulose (CMC) 96 % of control | dose: 3.13 mg/kg/injection, schedule: Q04DX003 (ip), vehicle: carboxymethylcellulose (CMC) 104 % of control | dose: 6.25 mg/kg/injection, schedule: Q04DX003 (ip), vehicle: carboxymethylcellulose (CMC) 110 % of control

CC(=O)C1=C(c2ccc([N+](=O)[O-])cc2)NC(=O)NC1c1ccco1 (stereo not drawn)
inactive: [1] 98 % of control | [2] 93 % of control | [3] 100 % of control

CC1Oc2ccccc2OC1NC1=NCCO1 (stereo not drawn)
inactive: dose: 100.0 mg/kg/injection, schedule: Q01DX001 (ip), vehicle: Klucel (hydroxypropylcellulose) (HPC) 97 % of control | [14] 100 % of control | dose: 200.0 mg/kg/injection, schedule: Q01DX001 (ip), vehicle: Klucel (hydroxypropylcellulose) (HPC) 103 % of control | [15] 100 % of control | dose: 400.0 mg/kg/injection, schedule: Q01DX001 (ip), vehicle: Klucel (hydroxypropylcellulose) (HPC) 102 % of control | [16] 108 % of control

COc1cc(N)c2nccc(N(C)C)c2c1
inactive: [11] 99 % of control | [18] 97 % of control | [12] 107 % of control | [19] 103 % of control | [21] 101 % of control

O=c1[nH]c2cc(Cl)ccc2c2c(Cl)cccc12
inactive: dose: 75.0 mg/kg/injection, schedule: Q01DX001 (ip), vehicle: carboxymethylcellulose (CMC) 91 % of control | dose: 150.0 mg/kg/injection, schedule: Q01DX001 (ip), vehicle: carboxymethylcellulose (CMC) 91 % of control | dose: 300.0 mg/kg/injection, schedule: Q01DX001 (ip), vehicle: carboxymethylcellulose (CMC) 96 % of control

CCCCCCCCCCCCCCCC[As](=O)(O)CCCCCCCCCCCCCCCC
inactive: [7] 97 % of control | [8] 97 % of control | [9] 89 % of control | [10] 101 % of control

CC(OC1OC(CO)C(OC2OC(CO)C(O)C(O)C2O)C(O)C1O)C1CC(O)C2C3CCC4=CC(=O)CCC4(C)C3CCC12C (stereo not drawn)
inactive: dose: 25.0 mg/kg/injection, schedule: Q04DX002 (ip), vehicle: saline 104 % of control | dose: 50.0 mg/kg/injection, schedule: Q04DX002 (ip), vehicle: saline 107 % of control | [17] 96 % of control
